Several values for one entry are separate records, joined by “and”; a condition that tells them apart may be missing. Equal values may be shown once. Read-outs that look alike come from different tables or passages of the source.
Experiments:
[1] = biological target: Abl kinase (h) (Homo sapiens (Human), UniProt P00519); test: Cerep kinase profiling, HTRF assay, Abl kinase; type: biochemical
Experimental: The inhibitory activity of the compounds of the chemical series on different protein kinases was evaluated by Cerep (Cerep Kinase Profiling Service; www.cerep.com). The kinases used in the tests in vitro are human recombinant proteins expressed in human cells, insect cells or in bacteria. […] The activity of the kinase was then detected by an HTRF assay. The HTRF assay (CisBio International) is based on fluorescence transfer, using Europium (Eu3+) cryptate and XL665 respectively as donor and acceptor. When the biotinylated or tagged substrate is phosphorylated by the kinase, it reacts with a cryptate-labelled phosphospecific antibody. Addition of Streptavidin-XL665, SA-XL665, (or anti-tag antibody XL665) leads to juxtaposition of the cryptate and of the fluorophore XL665, which is reflected in fluorescence resonance energy transfer (FRET). The intensity of FRET depends on the quantity of cryptate-labelled antibody bound to the substrate, which is proportional to the quantity of phosphorylated substrate (Mathis, G. Probing molecular interactions with homogeneous techniques based on rare earth cryptates and fluorescence energy transfer.

[2] = biological target: Abl T315I (Homo sapiens (Human), UniProt P00519, T315I); test: Reaction Biology Corp. kinase assay, mutated Abl T315I; type: biochemical; details: 10 μM; Reaction Biology Corp.; read-out: % inhibition of kinase activity, Abl T315I (category)
Experimental: (§1) 4 compounds were tested for their capacity to inhibit various mutated kinases AbI (American company, Reaction Biology Corp.).

[3] = biological target: Abl WT (Homo sapiens (Human), UniProt P00519); test: Reaction Biology Corp. kinase assay, Abl WT; type: biochemical; details: compounds tested by Reaction Biology Corp.; for inhibition at 10 µM: read-out: % inhibition of kinase activity, Abl WT (category); for IC50: ATP at 10 μM, read-out: IC50 on kinase Abl WT (category)
Experimental: as §1

[4] = biological target: Src kinase (Homo sapiens (Human), UniProt P12931); test: Reaction Biology Corp. kinase assay, Src; details: compounds tested by Reaction Biology Corp.; for IC50: IC50 on kinase Src (category), ATP at 10 μM; for inhibition at 10 µM: read-out: % inhibition of kinase activity, Src (category), 10 μM
Src kinase, sequence (P12931 whole entry, looked up): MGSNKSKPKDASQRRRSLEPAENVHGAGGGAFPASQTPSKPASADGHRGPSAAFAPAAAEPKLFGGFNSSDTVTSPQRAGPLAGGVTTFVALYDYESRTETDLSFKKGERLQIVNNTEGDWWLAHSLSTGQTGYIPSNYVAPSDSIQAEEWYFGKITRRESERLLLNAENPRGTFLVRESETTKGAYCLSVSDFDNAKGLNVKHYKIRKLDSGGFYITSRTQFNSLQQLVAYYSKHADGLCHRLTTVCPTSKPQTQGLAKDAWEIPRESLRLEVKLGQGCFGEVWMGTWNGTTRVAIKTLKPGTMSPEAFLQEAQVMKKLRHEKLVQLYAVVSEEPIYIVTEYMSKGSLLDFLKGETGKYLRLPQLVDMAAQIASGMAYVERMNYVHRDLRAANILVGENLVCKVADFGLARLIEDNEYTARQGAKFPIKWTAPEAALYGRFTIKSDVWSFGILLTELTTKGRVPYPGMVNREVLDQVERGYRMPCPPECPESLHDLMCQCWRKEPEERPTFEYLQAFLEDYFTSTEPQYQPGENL

[5] = 10 μM, compounds tested by Cerep, read-out: % inhibition of kinase activity, Abl WT (category)
[6] = Table 6, compound incubated at 10 μM, read-out: Percentage inhibition of kinase Abl
[7] = Table 9, Cerep, 5 concentrations 10^−10 M to 10^−4 M, read-out: IC50 in M Abl
[8] = compounds tested by Cerep, read-out: IC50 on kinase Abl WT (category)

Row | inhibition at 10 µM [1, 5] | inhibition at 10 µM [1, 6] | SMILES | other results
1 | 10 to 50% | 31% | COc1ccc(OC(=O)c2cc3cc(NC(=O)c4ccccc4)cnc3[nH]2)cc1 [ND0004, 5-(benzamido)-1H-pyrrolo[2,3-b]pyridine-2-4-methoxyphenyl carboxylate] | –
2 | 10 to 50% | 10% | NC(=O)c1cc2cc(NC(=O)c3cccc(F)c3)cnc2[nH]1 [ND0005, 5-(3-Fluorobenzamido)-1H-pyrrolo[2,3-b]pyridine-2-carboxamide] | –
3 | 10 to 50% | 33% | O=C(Nc1cnc2[nH]c(C(=O)NCCN3CCOCC3)cc2c1)c1cccc(F)c1 [ND0006, 5-(3-fluorobenzamido)-N-(2-morpholinoethyl)-1H-pyrrolo[2,3-b]pyridine-2-carboxamide] | IC50 [1, 7]: > 100 µM; IC50 [1, 8]: > 10 µM
4 | < 10% | 1% | O=C(Nc1cnc2[nH]c(C(=O)N3CCOCC3)cc2c1)c1cc([N+](=O)[O-])ccc1F [ND0010, 5-(2-fluoro-5-nitrobenzamido)-2-morpholinocarbonyl-1H-pyrrolo[2,3-b]pyridine] | IC50 [1, 7]: > 100 µM; IC50 [1, 8]: > 10 µM
5 | < 10% | 6% | Cc1nc(-c2cccc(C(=O)Nc3cnc4[nH]c(C(=O)NCCCN(C)C)cc4c3)c2)cs1 [ND0011, 5-(3-(2-methylthiazol-4-yl)benzamido)-N-(3-(dimethylamino)propyl)-1H-pyrrolo[2,3-b]pyridine-2-carboxamide] | IC50 [1, 7]: > 100 µM; IC50 [1, 8]: > 10 µM
6 | < 10% | 8% | CN(C)CCCNC(=O)c1cc2cc(NC(=O)c3ccc4nccnc4c3)cnc2[nH]1 [ND0012, N-(2-(3-(dimethylamino)propylcarbamoyl)-1H-pyrrolo[2,3-b]pyridin-5-yl)quinoxaline-6-carboxamide] | –
7 | > 50% | 82% | O=C(Nc1cnc2[nH]c(CO)cc2c1)c1ccccc1Br [ND0019, 2-bromo-N-(2-(hydroxymethyl)-1H-pyrrolo[2,3-b]pyridin-5-yl)benzamide] | –
8 | 10 to 50% | 39% | O=C(Nc1cnc2[nH]c(C[C@H]3CCCO3)cc2c1)c1ccccc1Br [ND0025] | –
9 | < 10% | 8% | CC1CCCCC1NCc1cc2cc(NC(=O)c3ccccc3Br)cnc2[nH]1 (stereo not drawn) [ND0026] | –
10 | 10 to 50% | 29% | O=C(Nc1cnc2[nH]c(CNc3cccc(Br)c3)cc2c1)c1ccccc1Br [ND0027] | –
11 | 10 to 50% | 14% | O=C(Nc1cnc2[nH]c(CNCc3ccccc3)cc2c1)c1ccccc1Br [ND0028] | –
12 | > 50% | 86% | O=C(Nc1cnc2[nH]c(Cn3ccnc3)cc2c1)c1ccccc1Br [ND0031] | IC50 [1, 7]: 4 µM; IC50 [1, 8]: 0.1 to 10 µM
13 | 10 to 50% | 27% | N#Cc1ccc(NCc2cc3cc(NC(=O)c4ccccc4Br)cnc3[nH]2)cc1 [ND0032] | –
14 | 10 to 50% | 17% | O=C(Nc1cnc2[nH]c(CNc3cccc([N+](=O)[O-])c3)cc2c1)c1ccccc1Br [ND0034] | –
15 | 10 to 50% | 47% | N#Cc1ccccc1NCc1cc2cc(NC(=O)c3ccccc3Br)cnc2[nH]1 [ND0036] | –
16 | 10 to 50% | 21% | Cc1cccc(NCc2cc3cc(NC(=O)c4ccccc4Br)cnc3[nH]2)c1 [ND0040] | –
17 | 10 to 50% | 14% | COc1cccc(NCc2cc3cc(NC(=O)c4ccccc4Br)cnc3[nH]2)c1 [ND0041] | –
18 | < 10% | 6% | COC(=O)c1cc2cc(NC(=O)C3CC3)cnc2[nH]1 [ND0044, Methyl 5-(cyclopropanecarboxamido)-1H-pyrrolo [2,3-b]pyridine-2-carboxylate] | –
19 | > 50% | 58% | COC(=O)c1cc2cc(NC(=O)C(C)C)cnc2[nH]1 [ND0045, Methyl 5-(isobutyramido)-1H-pyrrolo[2,3-b]pyridine-2-carboxylate] | –

Row | inhibition at 10 µM [1, 5] | inhibition at 10 µM [1, 6] | SMILES | other results
20 | 10 to 50% | 49% | CCC(=O)Nc1cnc2[nH]c(C(=O)OC)cc2c1 [ND0046, Methyl 5-(propionamido)-1H-pyrrolo[2,3-b]pyridine-2-carboxylate] | –
21 | 10 to 50% | 27% | COC(=O)c1cc2cc(NC(=O)c3cccnc3)cnc2[nH]1 [ND0050, Methyl 5-(nicotinamido)-1H-pyrrolo[2,3-b]pyridine-2-carboxylate] | –
22 | 10 to 50% | 20% | COC(=O)c1cc2cc(NC(=O)c3cccc(C#N)c3)cnc2[nH]1 [ND0051, Methyl 5-(3-cyanobenzamido)-1H-pyrrolo[2,3-b]pyridine-2-carboxylate] | –
23 | 10 to 50% | 33% | COC(=O)c1cc2cc(NC(=O)c3cccc(F)c3)cnc2[nH]1 [ND0053, Methyl 5-(3-fluorobenzamido)-1H-pyrrolo[2,3-b]pyridine-2-carboxylate] | –
24 | 10 to 50% | 15% | COC(=O)c1cc2cc(NC(=O)c3ccc(-c4csc(C)n4)cc3)cnc2[nH]1 [ND0054, Methyl 5-(4-(2-methylthiazol-4-yl)benzamido)-1H-pyrrolo[2,3-b]pyridine-2-carboxylate] | –
25 | – | – | COC(=O)c1cc2cc(NCc3ccccc3Br)cnc2[nH]1 [ND0057] | inhibition at 10 µM [2]: < 10%; inhibition at 10 µM [3]: > 50%; IC50 [3]: 0.1 to 10 µM; IC50 [4]: 0.1 to 10 µM; inhibition at 10 µM [4]: > 50%
26 | – | – | COC(=O)c1cc2cc(Nc3ccncc3)cnc2[nH]1 [ND0058] | inhibition at 10 µM [2]: < 10%; inhibition at 10 µM [3]: 10 to 50%; inhibition at 10 µM [4]: 10 to 50%
27 | < 10% | 5% | COC(=O)c1cc2cc(NC(=O)c3ccccc3Oc3ccccc3)cnc2[nH]1 [ND0059, Methyl 5-(2-phenoxybenzamido)-1H-pyrrolo[2,3-b]pyridine-2-carboxylate] | –
28 | 10 to 50% | 16% | CCCSc1ncccc1C(=O)Nc1cnc2[nH]c(C(=O)OC)cc2c1 [ND0060, Methyl 5-(2-(propylthio)pyridine-3-carboxamido)-1H-pyrrolo[2,3-b]pyridine-2-carboxylate] | –
29 | 10 to 50% | 46% | COC(=O)c1cc2cc(NC(=O)c3cccc(F)c3F)cnc2[nH]1 [ND0061, Methyl 5-(2,3-difluorobenzamido)-1H-pyrrolo[2,3-b]pyridine-2-carboxylate] | –
30 | < 10% | 6% | COC(=O)c1cc2cc(NC(=O)c3cccc4c3OCC4)cnc2[nH]1 [ND0062, Methyl 5-(2,3-dihydrobenzofuran-7-carboxamido)-1H-pyrrolo[2,3-b]pyridine-2-carboxylate] | –
31 | – | – | COC(=O)c1cc2cc(NC(=O)c3ccccc3OC)cnc2[nH]1 [ND0073, Methyl 5-(2-methoxybenzamido)-1H-pyrrolo[2,3-b]pyridine-2-carboxylate] | inhibition at 10 µM [2]: < 10%; inhibition at 10 µM [3]: 10 to 50%; inhibition at 10 µM [4]: 10 to 50%
32 | – | – | COC(=O)c1cc2cc(NC(=O)c3cccc(Br)c3)cnc2[nH]1 [ND0075, Methyl 5-(3-bromobenzamido)-1H-pyrrolo[2,3-b]pyridine-2-carboxylate] | inhibition at 10 µM [2]: 10 to 50%; inhibition at 10 µM [3]: 10 to 50%; inhibition at 10 µM [4]: 10 to 50%
33 | – | – | COC(=O)c1cc2cc(NC(=O)c3ccccc3C(F)(F)F)cnc2[nH]1 [ND0077, Methyl 5-(2-(trifluoromethyl)benzamido)-1H-pyrrolo[2,3-b]pyridine-2-carboxylate] | inhibition at 10 µM [2]: < 10%; inhibition at 10 µM [3]: > 50%; IC50 [3]: 0.001 to 0.1 µM; IC50 [4]: 0.001 to 0.1 µM and 0.1 to 10 µM; inhibition at 10 µM [4]: > 50%
34 | – | – | COC(=O)c1cc2cc(NC(=O)c3ccccc3OC(F)(F)F)cnc2[nH]1 [ND0078, Methyl 5-(2-(trifluoromethoxy)benzamido)-1H-pyrrolo[2,3-b]pyridine-2-carboxylate] | inhibition at 10 µM [2]: < 10%; inhibition at 10 µM [3]: 10 to 50%; inhibition at 10 µM [4]: 10 to 50%
35 | – | – | COC(=O)c1cc2cc(Nc3cccc(OC)c3)cnc2[nH]1 [ND0102] | inhibition at 10 µM [4]: 10 to 50%
36 | – | – | COC(=O)c1cc2cc(Nc3cccc(Br)c3)cnc2[nH]1 [ND0104] | inhibition at 10 µM [4]: < 10%
37 | – | – | COC(=O)c1cc2cc(Nc3ccc(Br)cc3)cnc2[nH]1 [ND0107] | inhibition at 10 µM [4]: 10 to 50%
38 | – | – | COC(=O)c1cc2cc(Nc3ccc(OC)cc3)cnc2[nH]1 [ND0109] | inhibition at 10 µM [4]: 10 to 50%
